Our source for the MIC values is paper PMC11845477, “Exploring the principles behind antibiotics with limited resistance” (Nature Communications, 2025).

What all share (test): microbe, parasite or virus in culture
In assay [1] the test system is T1, Acinetobacter baumannii ATCC BAA 1605.
T1 construct: ATCC BAA-1605
Further details: CLSI broth microdilution MIC; OD600 < 0.05 counted as complete growth inhibition. The note with it: Acinetobacter baumannii, BAA1605, 18 h; read-out: MIC of ancestor. Here is the method:
(§1) A final concentration of 5 × 10^5 bacterial cells per mL were inoculated into each well containing 60 µL MHB medium. Bacterial cultures were incubated at 37 °C with continuous shaking (Infors shaker, 900 rpm with 3 mm throw) for 18 hours (2 replicates from each). Cell growth was monitored by measuring the optical density (OD600 values, using Biotek Synergy microplate reader). MIC was defined as the antibiotic concentration of complete growth inhibition (i.e., OD600 < 0.05). Relative MIC was calculated as follows:1 relativeMIC=MICevolved/MICancestor This study focused on multiple bacterial strains, as follows. For the FoR and ALE experiments, 2 strains per species were chosen: E. coli ATCC 25922, K. pneumoniae ATCC 10031, A. baumannii ATCC 17978, and P. aeruginosa ATCC BAA-3107 as sensitive (SEN) strains, and E. coli NCTC13846, K. pneumoniae ATCC 700603, A. baumannii ATCC BAA-1605 and P. aeruginosa LESB58 as multi-drug resistant (MDR) strains. Functional metagenomic screens were performed with E. coli ATCC 25922 and K. pneumoniae ATCC 10031 strains. To determine the dose-kill properties of the different antibiotics, an E. coli strain (ATCC 25922) expressing a yellow fluorescent protein (pZS2R, YFP, CHL^R) and a red fluorescent protein (pZS2R, mCherry, CHL^R) was used.

Assay [2] deals with T2, Escherichia coli ATCC 25922.
T2 construct: ATCC 25922
Set-up: CLSI broth microdilution MIC; OD600 < 0.05 counted as complete growth inhibition. The note with it: Escherichia coli, ATCC25922, 18 h; read-out: MIC of ancestor. As for the experimental part: as §1

In assay [3] the test system is T3, Klebsiella pneumoniae ATCC 10031.
T3 construct: ATCC 10031
Set-up: CLSI broth microdilution MIC; OD600 < 0.05 counted as complete growth inhibition. The note with it: Klebsiella pneumoniae, ATCC10031, 18 h; read-out: MIC of ancestor. As for the experimental part: as §1

The test system of assay [4] is T4, Acinetobacter baumannii ATCC 17978.
T4 construct: ATCC 17978
Set-up: CLSI broth microdilution MIC; OD600 < 0.05 counted as complete growth inhibition. The note with it: Acinetobacter baumannii, ATCC17978, 18 h; read-out: MIC of ancestor. As for the experimental part:
as §1

In assay [5] the test system is T5, Escherichia coli NCTC 13846.
T5 construct: NCTC 13846
Set-up: CLSI broth microdilution MIC; OD600 < 0.05 counted as complete growth inhibition. The note with it: Escherichia coli, NCTC13846, 18 h; read-out: MIC of ancestor. As for the experimental part:
as §1

Assay [6] has as its system T6, Klebsiella pneumoniae ATCC 700603.
T6 construct: ATCC 700603
Set-up: CLSI broth microdilution MIC; OD600 < 0.05 counted as complete growth inhibition. The note with it: Klebsiella pneumoniae, ATCC700603, 18 h; read-out: MIC of ancestor. Here is the method: as §1

For the next assay, the system named is T7, E. coli NCTC13846 (MDR).
T7 construct: NCTC 13846
Set-up: Serial broth microdilution MIC (CLSI), OD600 below 0.05, 384-well plates, MHB medium. The note with it: Escherichia coli, NCTC13846, 18 h; ancestor strain before evolution. Here is the method:
as §1

The subject of a further assay is E. coli ATCC 25922. Further details: Serial broth microdilution MIC (CLSI), OD600 below 0.05, 384-well plates, MHB medium. The note with it: Escherichia coli, ATCC25922, 18 h; ancestor strain before evolution. As for the experimental part: as §1
Assay [7] has as its system T8, K. pneumoniae ATCC 700603 (MDR).
T8 construct: ATCC 700603
Further details: Serial broth microdilution MIC (CLSI), OD600 below 0.05, 384-well plates, MHB medium. The note with it: Klebsiella pneumoniae, ATCC700603, 18 h; ancestor strain before evolution. As for the experimental part:
as §1

Another assay has as its system T9, K. pneumoniae ATCC 10031.
T9 construct: ATCC 10031
Further details: Serial broth microdilution MIC (CLSI), OD600 below 0.05, 384-well plates, MHB medium. The note with it: Klebsiella pneumoniae, ATCC10031, 18 h; ancestor strain before evolution. Here is the method:
as §1

A further assay relates to T10, A. baumannii ATCC 17978.
T10 construct: ATCC 17978
Further details: Serial broth microdilution MIC (CLSI), OD600 below 0.05, 384-well plates, MHB medium. The note with it: Acinetobacter baumannii, ATCC17978, 18 h; ancestor strain before evolution. Here is the method:
as §1

Turning to `CC(C)c1ccc(Cn2ccc3c4c(N)nc(NC5CC5)nc4ccc32)cc1` [SCH, SCH79797], the MIC in assay [1], in [2], in [3] and in assay [4] was 4 µg/mL each time.

For the compound `C[C@@H](O)[C@H]1C(=O)N2C(C(=O)O)=C(S[C@H]3CC[S@@+]([O-])C3)S[C@H]12` [SUO, sulopenem], the MIC in assay [5] was determined as 0.0312 µg/mL; in assay [2], 0.0312 µg/mL; in assay [3], 0.0312 µg/mL; in assay [4] it was 1 µg/mL; in assay [6], 0.5 µg/mL.

As for `C[C@@H](O)[C@H]1C(=O)N2C(C(=O)O)=C(S[C@H]3CC[S@@+]([O-])C3)S[C@H]12` [sulopenem], the MIC with E. coli NCTC13846 (MDR) amounted to 0.0312 µg/mL; in the assay with E. coli ATCC 25922, 0.0312 µg/mL; in assay [7], 0.5 µg/mL; in the assay on K. pneumoniae ATCC 10031, 0.0312 µg/mL; with A. baumannii ATCC 17978, 1 µg/mL.
